Data taken from patent US11712434B2, “Compound having anti-cancer effect, and preparation method therefor and use thereof” (3D MEDICINES (BEIJING) CO., LTD., priority 2016, dated 2023).

Columns and labels:
Assay type in all cases: cell-based
HLE = assay: Cell proliferation assay (Alamar Blue); conditions: HLE liver cancer cell line, 6 days culture
Method in brief: (§1)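 Cells seeded at 500~1×10^4/well (density optimised per line), dosed after 4 h at 37 °C, 5% CO2 with 9 concentrations in 3.16-fold dilution from 100 or 30 μM top. After 6 days, AlamarBlue 1-4 h, fluorescence Ex 560/Em 590 nm; IC50 by four-parameter nonlinear regression.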

SNU423 = assay: Cell proliferation assay (Alamar Blue); conditions: SNU423 liver cancer cell line, 6 days culture
Method in brief: as §1

LC-2-ad = assay: Cell proliferation assay (Alamar Blue); conditions: LC-2-ad tumor cell line, 6 days culture
Method in brief: as §1

SNU387 = assay: Cell proliferation assay (Alamar Blue); conditions: SNU387 liver cancer cell line, 6 days culture
Method in brief: as §1

HuTu80 = assay: Cell proliferation assay (Alamar Blue); conditions: HuTu80 tumor cell line, 6 days culture
Method in brief: as §1

NCI-H526 = assay: Cell proliferation assay (Alamar Blue); conditions: NCI-H526 tumor cell line, 6 days culture
Method in brief: as §1

HUH6 = assay: Cell proliferation assay (Alamar Blue); conditions: HUH6 liver cancer cell line, 6 days culture
Method in brief: as §1

SNU182 = assay: Cell proliferation assay (Alamar Blue); conditions: SNU182 liver cancer cell line, 6 days culture
Method in brief: as §1

DLD1 = assay: Cell proliferation assay (Alamar Blue); conditions: DLD1 tumor cell line, 6 days culture
Method in brief: as §1

MFM-223 = assay: Cell proliferation assay (Alamar Blue); conditions: MFM-223 tumor cell line, 6 days culture
Method in brief: as §1

HCCLM3 = assay: Cell proliferation assay (Alamar Blue); conditions: HCCLM3 tumor cell line, 6 days culture
Method in brief: as §1

NCI-H661 = assay: Cell proliferation assay (Alamar Blue); conditions: NCI-H661 tumor cell line, 6 days culture
Method in brief: as §1

Alexander cells = assay: Cell proliferation assay (Alamar Blue); conditions: Alexander cells liver cancer cell line, 6 days culture
Method in brief: as §1

TE-15 = assay: Cell proliferation assay (Alamar Blue); conditions: TE-15 tumor cell line, 6 days culture
Method in brief: as §1

SNU354 = assay: Cell proliferation assay (Alamar Blue); conditions: SNU354 liver cancer cell line, 6 days culture
Method in brief: as §1

T.T = assay: Cell proliferation assay (Alamar Blue); conditions: T.T tumor cell line, 6 days culture
Method in brief: as §1

HUH7 = assay: Cell proliferation assay (Alamar Blue); conditions: HUH7 liver cancer cell line, 6 days culture
Method in brief: as §1

NCI-H1703 = assay: Cell proliferation assay (Alamar Blue); conditions: NCI-H1703 (lung cancer cells), 6 days culture
Method in brief: as §1

SNU761 = assay: Cell proliferation assay (Alamar Blue); conditions: SNU761 liver cancer cell line, 6 days culture
Method in brief: as §1

SNU886 = assay: Cell proliferation assay (Alamar Blue); conditions: SNU886 liver cancer cell line, 6 days culture
Method in brief: as §1

KM12 = assay: Cell proliferation assay (Alamar Blue); conditions: KM12 tumor cell line, 6 days culture
Method in brief: as §1

K562 = assay: Cell proliferation assay (Alamar Blue); conditions: K562 tumor cell line, 6 days culture
Method in brief: as §1

LNCAP-clone-FGC = assay: Cell proliferation assay (Alamar Blue); conditions: LNCAP-clone-FGC tumor cell line, 6 days culture
Method in brief: as §1

JHH6 = assay: Cell proliferation assay (Alamar Blue); conditions: JHH6 liver cancer cell line, 6 days culture
Method in brief: as §1

HT1080 = assay: Cell proliferation assay (Alamar Blue); conditions: HT1080 tumor cell line, 6 days culture
Method in brief: as §1

TE-6 = assay: Cell proliferation assay (Alamar Blue); conditions: TE-6 tumor cell line, 6 days culture
Method in brief: as §1

Li-7 = assay: Cell proliferation assay (Alamar Blue); conditions: Li-7 liver cancer cell line, 6 days culture
Method in brief: as §1

[1] = tested on: 26 liver cancer cell lines; assay: Cell proliferation assay (Alamar Blue), liver cancer panel summary; conditions: almost all liver cancer cells
Description: 1. Instruments and Materials • Thermo 311 CO2 incubator; Haier biosafety cabinet; Molecular Devices microplate reader; Xiangyi brand L530 desktop low speed centrifuge; Olympus IX51 inverted fluorescence microscope, DMEM, RPMI 1640, MEM, DMEM/F12 1:1 medium, Fetal bovine serum, 0.25% trypsin solution, phosphate buffer (Thermo Fisher Shanghai Co., Ltd.); sigma dimethyl sulfoxide (DMSO), resazurin; 54 commercial tumor cell lines (including 26 liver cancer cell lines). Experimental drugs: compounds 1-12 and active drug Linifanib; chemotherapeutic drug Doxorubicin (HY-15142; Shanghai Qianyuan Biomedical Technology Co., Ltd.).
2. […] The proportion and quantity of passage were determined by experimental needs. The ratio of subculture of this cell line was generally 1:2^˜1:3. • 2.2 Inhibition Effect on the Proliferation of Different Tumor Cell Lines • Cell test: 54 cell lines in logarithmic growth phase were inoculated in 96-well culture plates at 500^˜1×10^4/well (the optimal seeding density of each cell line was determined in pre-experiment), After incubating at 37° C. for 4 h in a 5% CO2 humidification incubator, added 10 μL of compounds 1-12 or Linifanib to each well, and tested 9 drug concentration gradients for each compound (diluted from the highest concentration of the test by 3.16 times). […]

With `Cc1ccc(F)c(NC(=O)Nc2ccc(-c3cccc4[nH]nc(NC(=O)C[C@H](N)C(=O)O)c34)cc2)c1` [Compound 10] the IC50 (HLE; Homo sapiens, 144 h) was 2.16 µM, the IC50 (SNU423; Homo sapiens, SNU-423, 144 h) was 15.3 µM and the IC50 (LC-2-ad; Homo sapiens, 144 h) was 3.33 µM. It also gave an IC50 (SNU387; Homo sapiens, SNU-387, 144 h) of 20.1 µM, an IC50 (HuTu80; Homo sapiens, 144 h) of 1.84 µM and an IC50 (NCI-H526; Homo sapiens, 144 h) of 6.93 µM. The IC50 (HUH6; Homo sapiens, HuH-6, 144 h) was 43.8 µM, the IC50 (SNU182; Homo sapiens, SNU-182, 144 h) was 22.1 µM and the IC50 (DLD1; Homo sapiens, DLD-1, 144 h) was 10.5 µM. It also gave an IC50 (MFM-223; Homo sapiens, 144 h) of 2.64 µM, an IC50 (HCCLM3; Homo sapiens, 144 h) of 7.76 µM and an IC50 (NCI-H661; Homo sapiens, 144 h) of 18 µM. The IC50 (Alexander cells; 144 h) was 3.79 µM, the IC50 (TE-15; Homo sapiens, 144 h) was 2.58 µM and the IC50 (SNU354; Homo sapiens, SNU-354, 144 h) was 3.33 µM. It also gave an IC50 (T.T; Homo sapiens, TT, 144 h) of 7.38 µM, an IC50 (HUH7; Homo sapiens, Huh-7, 144 h) of 2.24 µM and an IC50 (NCI-H1703; Homo sapiens, 144 h) of 0.02 µM. It also gave an IC50 (SNU761; 144 h) of 8.73 µM, an IC50 (SNU886; SNU-886, 144 h) of 6.19 µM and an IC50 (KM12; Homo sapiens, 144 h) of 2.43 µM. The IC50 (K562; Homo sapiens, 144 h) was 14.6 µM, the IC50 (LNCAP-clone-FGC; Homo sapiens, 144 h) was 14.8 µM and the IC50 (JHH6; 144 h) was 5.38 µM. The IC50 (HT1080; Homo sapiens, HT-1080, 144 h) was 7.83 µM, the IC50 (TE-6; Homo sapiens, 144 h) was 6.98 µM and the IC50 (Li-7; 144 h) was 5.28 µM.

`Cc1ccc(F)c(NC(=O)Nc2ccc(-c3cccc4[nH]nc(NC(=O)CCCCCNC(=O)C[C@H](N)C(=O)O)c34)cc2)c1` [Compound 11] gave an IC50 (HLE) of over 100 µM, an IC50 (SNU423) of over 100 µM and an IC50 (LC-2-ad) of over 100 µM. It also gave an IC50 (SNU387) of over 100 µM, an IC50 (HuTu80) of 63.1 µM and an IC50 (NCI-H526) of over 100 µM. It also gave an IC50 (HUH6) of over 100 µM, an IC50 (SNU182) of over 100 µM and an IC50 (DLD1) of over 100 µM. It also gave an IC50 (MFM-223) of over 100 µM, an IC50 (HCCLM3) of over 100 µM and an IC50 (NCI-H661) of over 100 µM. The IC50 (Alexander cells) was over 100 µM, the IC50 (TE-15) was over 100 µM and the IC50 (SNU354) was over 100 µM. For the same compound, the IC50 (T.T) was over 100 µM, the IC50 (HUH7) was over 100 µM and the IC50 (NCI-H1703) was 0.83 µM. The IC50 (SNU761) was over 100 µM, the IC50 (SNU886) was over 100 µM and the IC50 (KM12) was over 100 µM. The IC50 (K562) was over 100 µM, the IC50 (LNCAP-clone-FGC) was over 100 µM and the IC50 (JHH6) was over 100 µM. For the same compound, the IC50 (HT1080) was over 100 µM, the IC50 (TE-6) was over 100 µM and the IC50 (Li-7) was over 100 µM.

For `Cc1ccc(F)c(NC(=O)Nc2ccc(-c3cccc4[nH]nc(NC(=O)CCCCCCCCCCCNC(=O)C[C@H](N)C(=O)O)c34)cc2)c1` [Compound 12], the “response of liver cancer cells” value [1] was “did not respond”, the IC50 (HLE) was over 100 µM and the IC50 (SNU423) was over 100 µM. For the same compound, the IC50 (LC-2-ad) was 22.9 µM, the IC50 (SNU387) was over 100 µM and the IC50 (HuTu80) was 44.4 µM. It also gave an IC50 (NCI-H526) of over 100 µM, an IC50 (HUH6) of over 100 µM and an IC50 (SNU182) of over 100 µM. The IC50 (DLD1) was over 100 µM, the IC50 (MFM-223) was 53.4 µM and the IC50 (HCCLM3) was over 100 µM. It also gave an IC50 (NCI-H661) of over 100 µM, an IC50 (Alexander cells) of 77.1 µM and an IC50 (TE-15) of over 100 µM. For the same compound, the IC50 (SNU354) was 97.3 µM, the IC50 (T.T) was over 100 µM and the IC50 (HUH7) was 40.6 µM. For the same compound, the IC50 (NCI-H1703) was 0.25 µM, the IC50 (SNU761) was over 100 µM and the IC50 (SNU886) was 41.9 µM. For the same compound, the IC50 (KM12) was 82.5 µM, the IC50 (K562) was over 100 µM and the IC50 (LNCAP-clone-FGC) was 70.5 µM. The IC50 (JHH6) was 85.8 µM, the IC50 (HT1080) was over 100 µM and the IC50 (TE-6) was over 100 µM. It also gave an IC50 (Li-7) of 90.4 µM.
